The source of these data is US20260283206A1, “SWEETENER COMPOSITIONS” (CARGILL, INCORPORATED, priority 2023, published 2026).

Entries after “also recorded” stand apart in the source; their conditions may differ.

The nature of the test: Sensory panel assay of aqueous steviol glycoside solutions (roundtable consensus, descriptive analysis). As to conditions: 500 ppm in reverse osmosis water, panel of four; for Sensory Attribute Comments - Off-tastes (bitterness, metallic taste) / Sensory Attribute Comments - Sweetness (intensity / profile): compared against Reb A and Reb D/M. In kind it is in vivo. As to the method:
Assays were carried out to characterize the sensory attributes, e.g., sweetness profile, of aqueous solutions of samples. Sensory attributes of the compositions were tested by a panel of individuals that are experienced in sensory testing. The experienced panelists assessed sensory attributes such as, but not limited to, bitterness, metallic notes, mouth drying, sweetness intensity, and sweetness linger. The panelists compared the sweeteners against Reb A and Reb D/M. To test each composition, the experienced panelists dispensed approximately 2-4 fl oz of each sample or solution into their own mouths, dispersed the solution by moving their tongues, and individually recorded a sensory attribute scale value. Between tasting solutions, the panelists were able to cleanse their palates with water and/or rice crackers.
Assays were carried out to characterize the sensory attributes of aqueous solutions. Sensory attributes were analyzed by a panel of four individuals using a roundtable consensus approach. All panelists used the assay method described above. The panelists provided a descriptive analysis of the samples. The sensory attributes of Reb A and Reb D/M are known, and thus Reb A and Reb D/M were used as comparative samples. The sweetness profile of Reb A is described in the art, for example in DuBois et al. (“Concentration—Repose Relationship of Sweeteners,” Sweeteners: Discovery, Molecular Design, and Chemoreception, Chapter 20, pages 261-276, American Chemical Society 1991).

For the compound `C=C1C[C@@]23CC[C@H]4[C@@](C)(CCC[C@@]4(C)C(=O)O[C@@H]4O[C@H](CO)[C@@H](O)[C@H](O)[C@H]4O[C@@H]4O[C@H](CO)[C@@H](O)[C@H](O)[C@H]4O)[C@@H]2CC[C@]1(O[C@@H]1O[C@H](CO)[C@@H](O)[C@H](O[C@@H]2O[C@H](CO)[C@@H](O)[C@H](O)[C@H]2O)[C@H]1O[C@@H]1OC[C@@H](C)[C@H](O)[C@H]1O)C3` [Sample 1, rebaudioside EM], the “Sensory Attribute Comments - Off-tastes (bitterness, metallic taste)” value (shortened to “Sensory Attribute Comments - Off-tastes”) is listed as “Off-tastes: Less bitter than Reb A”.

With `C=C1CC23CCC4C(C)(C(=O)OC5OC(CO)C(O)C(OC6OC(CO)C(O)C(O)C6O)C5OC5OCC(O)C(O)C5O)CCCC4(C)C2CCC1(OC1OC(CO)C(O)C(OC2OC(CO)C(O)C(O)C2O)C1OC1OC(CO)C(O)C(O)C1O)C3` (stereo not drawn) [Sample 2, rebaudioside V2], the “Sensory Attribute Comments - Sweetness onset and rise” value is listed as “(Reb D/M). Slight delay in onset (less delay than Sample; also recorded: very rapid rise”; the “Sensory Attribute Comments - Off-tastes” value was “Off-tastes: Very faint bitterness. Quite clean sweetness”; the “Sensory Attribute Comments - Sweetness (intensity / profile)” value is “Sweetness: Higher peak sweetness than Sample 5”.

For the compound `C=C1C[C@@]23CC[C@H]4[C@@](C)(CCC[C@@]4(C)C(=O)O[C@@H]4O[C@H](CO)[C@@H](O)[C@H](O)[C@H]4O)[C@@H]2CC[C@]1(O[C@@H]1O[C@H](CO)[C@@H](O)[C@H](O[C@@H]2O[C@H](CO)[C@@H](O)[C@H](O)[C@H]2O)[C@H]1O[C@@H]1O[C@H](CO)[C@@H](O)[C@H](O)[C@H]1O)C3` [Sample 3, rebaudioside A, reference compound], the “Sensory Attribute Comments - Off-tastes” value is given as “Off-tastes: Typical Reb A bitterness, metallic taste” and the “Sensory Attribute Comments - Sweetness (intensity / profile)” value is listed as “Sweetness: Sweetness profile typical of Reb A”.
